Publication PMC8212937 (Alcoholism, clinical and experimental research, 2009)

Columns and labels:
[1] = target: T1, aldehyde dehydrogenase 2 (ALDH-2) (Homo sapiens, UniProt P05091); assay: fluorimetric dehydrogenase activity assay; format: biochemical
T1 sequence (P05091 18-517): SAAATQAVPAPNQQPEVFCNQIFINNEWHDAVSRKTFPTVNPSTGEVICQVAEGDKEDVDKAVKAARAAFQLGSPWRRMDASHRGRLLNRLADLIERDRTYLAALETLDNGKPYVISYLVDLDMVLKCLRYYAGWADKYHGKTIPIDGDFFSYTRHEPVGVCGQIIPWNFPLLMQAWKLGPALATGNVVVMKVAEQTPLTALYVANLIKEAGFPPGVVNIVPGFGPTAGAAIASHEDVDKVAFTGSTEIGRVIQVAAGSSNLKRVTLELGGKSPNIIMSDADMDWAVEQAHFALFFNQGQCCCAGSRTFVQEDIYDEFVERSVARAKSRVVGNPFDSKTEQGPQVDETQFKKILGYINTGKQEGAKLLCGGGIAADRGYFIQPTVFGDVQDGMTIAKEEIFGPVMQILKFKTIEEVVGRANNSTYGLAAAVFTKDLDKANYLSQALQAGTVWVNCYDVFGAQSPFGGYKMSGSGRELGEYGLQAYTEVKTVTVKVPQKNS

ALDH-1 = target: T2, ALDH-1 (Homo sapiens, UniProt P00352); assay: fluorimetric dehydrogenase activity assay; format: biochemical
T2 sequence (P00352 2-501): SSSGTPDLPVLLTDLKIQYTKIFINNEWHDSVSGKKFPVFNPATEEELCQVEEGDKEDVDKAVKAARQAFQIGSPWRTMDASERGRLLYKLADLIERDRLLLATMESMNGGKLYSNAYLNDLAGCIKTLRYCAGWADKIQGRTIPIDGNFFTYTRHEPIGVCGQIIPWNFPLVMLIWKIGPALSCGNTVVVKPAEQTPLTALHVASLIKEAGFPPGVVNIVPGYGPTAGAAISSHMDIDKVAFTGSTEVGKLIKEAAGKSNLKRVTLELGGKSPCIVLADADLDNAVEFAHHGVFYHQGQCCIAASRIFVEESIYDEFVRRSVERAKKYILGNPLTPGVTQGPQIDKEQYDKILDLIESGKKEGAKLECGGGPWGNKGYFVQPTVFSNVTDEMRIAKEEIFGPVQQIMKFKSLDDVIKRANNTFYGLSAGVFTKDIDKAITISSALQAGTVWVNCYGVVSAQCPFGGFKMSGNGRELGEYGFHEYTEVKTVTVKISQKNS

IC50 [1]: ~29 nM
IC50 (ALDH-1): 1300 nM
SMILES: CS(=O)(=O)Nc1ccc(-c2coc3cc(OCc4cccc(C(=O)O)c4)ccc3c2=O)cc1 [CVT-10216, 3-((3-(4-(methylsulfonamido)phenyl)-4-oxo-4H-chromen-7-yloxy)methyl)benzoic acid]
